Measured values published in PubChem BioAssay (NCI).
Values after ≈ are worked out from the molar mass of the structure shown.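 1) Cells in 96-well plates. 2) Compound, 48 h, 5 concentrations. 3) Linear interpolation between surrounding doses. 4) Unreached endpoint = highest concentration. GI50: concentration for 50% inhibition of growth. At the TGI there is no net growth.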

Key:
Experiment in all cases: growth of human tumour cells (NCI), 48 h
SNB-19 CNS = test system: SNB-19 CNS
SF-268 CNS = test system: SF-268 CNS
CCRF-CEM leukemia = test system: CCRF-CEM leukemia
HCC-2998 colon = test system: HCC-2998 colon
OVCAR-8 ovarian = test system: OVCAR-8 ovarian
KM12 colon = test system: KM12 colon
HCT-15 colon = test system: HCT-15 colon
IGROV1 ovarian = test system: IGROV1 ovarian
SW-620 colon = test system: SW-620 colon
LOX IMVI melanoma = test system: LOX IMVI melanoma
MOLT-4 leukemia = test system: MOLT-4 leukemia
K-562 leukemia = test system: K-562 leukemia
BT-549 breast = test system: BT-549 breast
OVCAR-3 ovarian = test system: OVCAR-3 ovarian
EKVX NSCLC = test system: EKVX NSCLC
UACC-257 melanoma = test system: UACC-257 melanoma
MDA-MB-231 breast = test system: MDA-MB-231 breast
HOP-92 NSCLC = test system: HOP-92 NSCLC
TK-10 renal = test system: TK-10 renal
OVCAR-4 ovarian = test system: OVCAR-4 ovarian
A549 NSCLC = test system: A549 NSCLC
OVCAR-5 ovarian = test system: OVCAR-5 ovarian
HS 578T breast = test system: HS 578T breast
SK-MEL-5 melanoma = test system: SK-MEL-5 melanoma
U251 CNS = test system: U251 CNS
NCI-H522 lung = test system: NCI-H522 lung
NCI-H23 lung = test system: NCI-H23 lung
SN12C renal = test system: SN12C renal
MALME-3M melanoma = test system: MALME-3M melanoma
HT29 colon = test system: HT29 colon
NCI/ADR-RES ovarian = test system: NCI/ADR-RES ovarian
HL-60(TB) leukemia = test system: HL-60(TB) leukemia
UACC-62 melanoma = test system: UACC-62 melanoma
MDA-MB-435 = test system: MDA-MB-435
ACHN renal = test system: ACHN renal
CAKI-1 renal = test system: CAKI-1 renal
A498 renal = test system: A498 renal
NCI-H460 lung = test system: NCI-H460 lung
MCF7 breast = test system: MCF7 breast
SK-MEL-28 melanoma = test system: SK-MEL-28 melanoma
M14 melanoma = test system: M14 melanoma
PC-3 prostate = test system: PC-3 prostate
SK-MEL-2 melanoma = test system: SK-MEL-2 melanoma
COLO 205 colon = test system: COLO 205 colon
RPMI-8226 leukemia = test system: RPMI-8226 leukemia
UO-31 renal = test system: UO-31 renal
SF-295 CNS = test system: SF-295 CNS
HCT-116 colon = test system: HCT-116 colon

Cc1sc(Cc2ccccc2)nc1-c1ccc(N)cc1
TGI (SNB-19 CNS): > 100 µM
TGI (SF-268 CNS): > 100 µM
TGI (CCRF-CEM leukemia): 72.8 µM
TGI (HCC-2998 colon): 35.5 µM
TGI (OVCAR-8 ovarian): > 100 µM
TGI (KM12 colon): 46.3 µM
TGI (HCT-15 colon): 46.9 µM
TGI (IGROV1 ovarian): 89.8 µM
TGI (SW-620 colon): > 100 µM
TGI (LOX IMVI melanoma): 29.8 µM
TGI (MOLT-4 leukemia): 51.1 µM
TGI (K-562 leukemia): > 100 µM
TGI (BT-549 breast): 83.4 µM
TGI (OVCAR-3 ovarian): 68.8 µM
TGI (EKVX NSCLC): > 100 µM
TGI (UACC-257 melanoma): 84.5 µM
TGI (MDA-MB-231 breast): 84.8 µM
TGI (HOP-92 NSCLC): 43.4 µM
TGI (TK-10 renal): > 100 µM
TGI (OVCAR-4 ovarian): 51.1 µM
TGI (A549 NSCLC): > 100 µM
TGI (OVCAR-5 ovarian): > 100 µM
TGI (HS 578T breast): > 100 µM
TGI (SK-MEL-5 melanoma): 35.6 µM
TGI (U251 CNS): 74.7 µM
TGI (NCI-H522 lung): 38.7 µM
TGI (NCI-H23 lung): > 100 µM
TGI (SN12C renal): 40.2 µM
TGI (MALME-3M melanoma): 90.2 µM
TGI (HT29 colon): 54.8 µM
TGI (NCI/ADR-RES ovarian): > 100 µM
TGI (HL-60(TB) leukemia): > 100 µM
TGI (UACC-62 melanoma): 37.8 µM
TGI (MDA-MB-435): 37.7 µM
TGI (ACHN renal): > 100 µM
TGI (CAKI-1 renal): 83.8 µM
TGI (A498 renal): > 100 µM
TGI (NCI-H460 lung): 50.2 µM
TGI (MCF7 breast): 44.1 µM
TGI (SK-MEL-28 melanoma): 61.4 µM
TGI (M14 melanoma): 43.7 µM
TGI (PC-3 prostate): 89.7 µM
TGI (SK-MEL-2 melanoma): 37.7 µM
TGI (COLO 205 colon): 56.2 µM
TGI (RPMI-8226 leukemia): 71.4 µM
TGI (UO-31 renal): > 100 µM
TGI (SF-295 CNS): > 100 µM
TGI (HCT-116 colon): 40.7 µM

CC(=O)OC1C=CC(OC(C)=O)C2C1[C@H]1C3C=CC=CC3[C@@H]2S1=O (some centres not stated)
GI50 (HCC-2998 colon): 94.2 µg/mL (≈ 270 µM)
GI50 (BT-549 breast): 59.8 µg/mL (≈ 172 µM)
GI50 (MDA-MB-435): 40.2 µg/mL (≈ 115 µM)
GI50 (A498 renal): 53.7 µg/mL (≈ 154 µM)
